The values that follow come from US5032584A, “S-diastereomer of an n^6 -((2-hydroxypropyl)aryl)adenosine and its medicinal uses” (G. D. Searle & Co., priority 1988, dated 1991).

“Also recorded” adds a separate entry of the source.

Series [1] has as its system plasma renin activity (PRA). Description: Change in plasma renin activity in the bilateral renal artery ligated rat. As to conditions: 1 mg/kg I.V.; for Prevention of PRA increase (in words): 30 and 60 minutes. The series is classed as in vivo, Sprague-Dawley rats. The method, then:
Adenosine Al receptor stimulation will inhibit the release of renin from the kidney. A stimulus for the release of renin is renal ischemia. The ability of the compounds of the present invention to prevent an increase in PRA following renal ischemia was tested in rats with both renal arteries ligated. Sprague-Dawley rats were anesthetized with ether and the renal arteries were ligated. Three to five hours after anesthesia, arterial blood was sampled and compounds I and II were administered in polyethylene glycol at 1 mg/kg I.V. At 30 and 60 minutes after administration, arterial blood was sampled for PRA measurement by the method of Sealy, J. E. et al., Cardiovasc. Med. 2:1079, 1977.

The test system of series [2] is adenosine A1 receptor in the granular juxtaglomerular cells of the kidney. The settings on record: Federation Proceedings 44:879 & 1643, 1985; cited from earlier work.
Series [3] relates to mice. The experiment in a line: Ataxia on the rotating rod in mice. The series is classed as in vivo. As to conditions: for Percent ataxic, 0.5 hour / Percent ataxic, 3 hour: 54 ± 12 mg/kg ip (pooled 32, 56, 75 mg/kg). The method, then: (§1) Adenosine analogs tend to produce sedation and central nervous system depression which have prevented their therapeutic utility. The compounds of the invention, at doses which lower arterial pressure in the SHR, show no evidence of CNS depression. The ataxia produced by compounds of the present invention was measured in mice by injecting the compounds IP at doses of 32, 56, or 75 mg/kg in an aqueous suspension, n=7 per dose. The mice had previously been trained to remain on a rotating rod. After dosing, the percent of mice unable to remain on the rotating rod was determined. […] The mice were also observed at various time intervals for behavioral signs of toxicity.

The subject of series [4] is mice. Description: Behavioral toxicity in mice after 75 mg/kg IP. The arrangement: key to Motor depression / Ptosis / Respiratory depression / Flaccidity / Loss of righting reflex: +: toxic symptom observed. The series is classed as in vivo. The method, then: as §1
Series [5] can be described thus: Solubility in MeOH. The series is classed as physicochemical. The settings on record: S isomer vs R isomer.
Series [6] relates to spontaneously hypertensive rats (SHR). The experiment in a line: Effects on mean arterial pressure and heart rate in conscious spontaneously hypertensive rats (i.v. or intragastric). The series is classed as in vivo, rat. The method, then: The effects of compounds I and II were tested intravenously or intragastrically in conscious spontaneously hypertensive rats (SHR). The rats were anesthetized with ether and the left carotid artery and right jugular vein were cannulated with polyethylene tubing. The rats were allowed three to five hours recovery from anesthesia for the I.V. studies and 12 to 18 hours for the oral studies. Mean arterial pressure (MAP, in mm/Hg) and heart rate (HR, beats/min.) were measured from the artery; intravenous administration of compounds was performed by injection into the vein. Oral administration was performed by gastric intubation. Compounds were dissolved in DMSO for I.V. studies and injected in volumes of 100 μ1/kg or less (N=5 per pound). Doses were 3 to 1,000 μg/kg. Compounds were dissolved in polyethylene glycol for oral administration and injected in volumes of 1 ml/kg at a dose of 20 mg/kg/day for three days (N=3 to 6 per compound).
The resting MAP and HR for the SHR ranged between 160-200 mm Hg and 330/350 b/min., respectively.

[7] abbreviates: 20 mg/kg intragastric, day 2 of oral administration.

Turning to `OC[C@H]1O[C@@H](n2cnc3c(NCC(O)COc4cccc5ccccc45)ncnc32)[C@H](O)[C@@H]1O` (mixture of isomers) [Compound I, N(6)-[2-hydroxy-3-(1-naphthyloxy)propyl]-adenosine], in series [1], the “Prevention of PRA increase (in words)” value is “prevented to the same extent”. Further, in series [2], the “Binding to adenosine A1 receptor and effect on renin release, blood pressure, heart rate (in words)” value was “binds to the adenosine Al receptor in the granular juxtaglomerular cells of the kidney to inhibit release of renin into the plasma, ultimately resulting in a reduction in circulating angiotensin II, thus reducing arterial blood pressure and heart rate in hypertensive models”. For the same compound, in series [3], the “Percent ataxic, 0.5 hour” value stood at 33 ± 10% and the “Percent ataxic, 3 hour” value was found to be 95 ± 5%. Moreover, in series [4] (75 mg/kg IP, 18-20 h), the Flaccidity result was “+”; the “Flaccidity, incidence (footnote *)” value is 2/7; the Motor depression entry is “+”; the Ptosis result is “+”. For the same compound, the Respiratory depression result in series [4] (75 mg/kg IP, 18-20 h) is recorded as “+”. Moreover, in series [4] (75 mg/kg IP, 0.5 h), the Motor depression result is reported as “+”, the Ptosis entry is reported as “+” and the Respiratory depression entry was “+”. Besides, in series [4] (75 mg/kg IP, 3 h), the “Behavioral toxicity (in words)” value was “flaccidity and loss of righting reflex”; the Flaccidity result is listed as “+”; the “Loss of righting reflex” value is given as “+”; the Motor depression entry is “+”. For the same compound, in series [4] (75 mg/kg IP, 3 h), the Ptosis entry is “+” and the Respiratory depression result is reported as “+”.

`OC[C@H]1O[C@@H](n2cnc3c(NC[C@H](O)COc4cccc5ccccc45)ncnc32)[C@H](O)[C@@H]1O` [Compound II, N^6-[2S-hydroxy-3-(1naphthalenyloxy)propyl]-adenosine]: the “Prevention of PRA increase (in words)” value in series [1] is recorded as “prevented to the same extent”. Further, the “Change in PRA, 30 minutes” value in series [1] (30 min after dosing) was -11.7 ± 3.5 ngAI/ml/hr. The “Change in PRA, 60 minutes” value in series [1] (60 min after dosing) is reported as -13.8 ± 4.9 ngAI/ml/hr. Moreover, the “Solubility in MeOH (in words)” value in series [5] is given as “less soluble in MeOH”. Further, in series [3], the “Percent ataxic, 0.5 hour” value is recorded as 14 ± 8% and the “Percent ataxic, 3 hour” value is given as 48 ± 21%. For the same compound, in series [3] (compared to compound I / racemic mixture), the “Central nervous system toxicity (in words)” value was “less CNS toxic than compound I, especially with regard to ataxia; also recorded: less central nervous system toxicity than the racemic mixture”. Further, the “Ataxia / motor toxicity (in words)” value in series [3] (mice, ip, compared to compound I) was “less ataxia at 0.5 or 3 hours as compared to compound I; also recorded: less motor toxicity than compound I”. Moreover, in series [6] (setting [7]), the “Maximum decrease at 20 mg/kg ig, HR” value was 202 ± 24 b/min and the “Maximum decrease at 20 mg/kg ig, MAP” value was determined as 62 ± 7 mmHg. For the same compound, the ED (HR decrease by 100 b/min) in series [6] (Rattus norvegicus, iv, i.v. in DMSO, read-out: IV dose to decrease HR by 100 b/min) is 0.036 ± 0.0012 mg/kg. Further, the ED (MAP decrease by 40 mmHg) in series [6] (Rattus norvegicus, iv, i.v. in DMSO, read-out: IV dose to decrease MAP by 40 mmHg) amounted to 0.047 ± 0.0012 mg/kg. In series [4] (75 mg/kg IP, 18-20 h), the Flaccidity result is recorded as “+”, the Motor depression result is recorded as “+” and the Ptosis result is “+”. For the same compound, in series [4] (75 mg/kg IP, 0.5 h), the Motor depression result is reported as “+” and the Ptosis result was “+”. In series [4] (75 mg/kg IP, 3 h), the Motor depression entry is recorded as “+” and the Ptosis result is on record as “+”. Further, in series [4] (75 mg/kg IP, 24 h), the Motor depression result was “+”; the “Motor depression, incidence” value is 5/7; the Ptosis result is “+”; the “Ptosis, incidence” value is recorded as 5/7. In series [4] (75 mg/kg IP, 24 h), the “Respiratory depression, incidence” value is 5/7. Moreover, the Respiratory depression entry in series [4] (mouse, in vivo) is recorded as “+”.

For `OC[C@H]1O[C@@H](n2cnc3c(NC[C@@H](O)COc4cccc5ccccc45)ncnc32)[C@H](O)[C@@H]1O` [R isomer], the “Solubility in MeOH (in words)” value in series [5] is recorded as “more soluble in MeOH”.
